Measured values published in US20240115592A1, “PGC-1alpha EXPRESSION PROMOTING AGENT, MUSCLE-BUILDING AGENT AND MITOCHONDRIA ACTIVATING AGENT” (YAMASA CORPORATION, priority 2020, published 2024).

Legend:
[1] = system: PGC-1α; settings: neurons; Patent Literature 1; cited from earlier work
[2] = system: Myogenin; test: Myogenin gene expression promoting effect (II) (Example 4); format: cell-based, Mouse; settings: C2C12 cells, 4-6 days, vs control
Procedure: (§1) Mouse myoblast cell line C2C12 cells (RIKEN BRC, RCB0987) were suspended in growth medium (Dulbecco's modified Eagle's Medium supplemented with 10% FBS, 100 units/ml of penicillin, 100 μg/ml of streptomycin), seeded in 24-well plates, and incubated in a 37° C., 5% CO2 incubator until the cell density reached 70-90%. […] After culturing the cells for 4-6 days while exchanging the medium once every 2 days, the medium was removed, and total RNA was extracted from the cells using the RNeasy Mini kit (QIAGEN).
(§2) A level of Myogenin mRNA expression, a marker gene for myotube cell differentiation, was evaluated by the following method:
(§3) Cell culture and treatment with the test substances, total RNA extraction and reverse transcription reaction were performed as in Example 2. Real-time PCR analysis was used to determine mRNA expression levels of Myogenin and β-actin as an internal standard. Statistical analysis was also performed in the same method as that of Example 1.

[3] = system: Myh7; test: Myh7 gene expression promoting effect (II) (Example 6); format: cell-based, Mouse; settings: C2C12 cells, 4-6 days, vs control
Procedure: as §1
(§4) A level of Myh7 mRNA expression encoding a slow-muscle type myosin protein was evaluated using the following method:
as §3, with “Myh7” for “Myogenin”

[4] = system: C2C12 cells; test: Myotube cell diameter increasing effect (II) (Example 10); format: cell-based, Mouse; settings: 5-6 days; for myotube cell diameter (photographs): FIG. 13; for myotube cell diameter (ImageJ, average of 50 cells): vs control, FIGS. 14 to 17
Procedure: Cell culture and addition of test substances were carried out by the same method as that of Example 2. The cells were cultured for 5-6 days while exchanging a differentiation inducing medium containing the test substances once every 2 days, and five positions near the center of the wells were then photographed at magnifications of 100.
Also, using ImageJ image analysis software, the diameters of ten myotube cells per a photograph were measured in order from the myotube cell having the largest diameter, and an average of 50 cells was determined to be the diameter of the myotube cell in each well. Statistical analysis was also performed by the same method as that of Example 2.

[5] = system: PGC-1α; test: PGC-1α gene expression promoting effect (I), real-time PCR (Example 1); format: cell-based, Mouse; settings: C2C12 cells, 1 mM or 5 mM disodium cytidylate, 6 days, corrected by β-actin, vs control; FIG. 1
Procedure: Mouse myoblast cell line C2C12 cells (RIKEN BRC, RCB0987) were suspended in growth medium (Dulbecco's modified Eagle's Medium supplemented with 10% FBS, 100 units/ml of penicillin, 100 μg/ml of streptomycin), seeded in 24-well plates, and incubated in a 37° C., 5% CO2 incubator until the cell density reached 70-90%. […] After culturing the cells for 6 days while exchanging the medium once every 2 days, the medium was removed, and total RNA was extracted from the cells using the RNeasy Mini kit (QIAGEN). Unless otherwise stated, each sample n=6 was used for the study, including the following Examples. Using the total RNA as a template, a reverse transcription reaction solution was prepared using the ReverTra Ace® qPCR RT Kit (Toyobo). The reverse transcription reaction solution, GoTaq® qPCR Master Mix (Promega), and a real-time PCR device, Thermal Cycler Dice Real Time System (Takara Bio), were used to measure mRNA expression levels of PGC-1α and β-actin as an internal standard. Analysis was performed by relative quantification, and mRNA expression levels were corrected using the β-actin mRNA expression level as an endogenous control. Dunnett's multiple comparison test was performed for statistical analysis. The threshold of statistical significance was set to 5%.

[6] = system: PGC-1α; test: PGC-1α gene expression promoting effect (II), real-time PCR (Example 2); format: cell-based, Mouse; settings: C2C12 cells, 4-6 days, corrected by β-actin, vs control; FIG. 2
Procedure: as §1
Using the total RNA as a template, a reverse transcription reaction solution was prepared using the ReverTra Ace® qPCR RT Kit (Toyobo). The reverse transcription reaction solution, GoTaq® qPCR Master Mix (Promega), and a real-time PCR device, Thermal Cycler Dice Real Time System (Takara Bio), were used to measure the mRNA expression levels of PGC-1α and β-actin as an internal standard. Analysis was performed by relative quantification, and the mRNA expression level was corrected using the β-actin mRNA expression level as an endogenous control. Statistical analysis was performed by t-test or Dunnett's multiple comparison test using the differentiation induction medium treatment group without the test substances as a control. The threshold of statistical significance was set to 5%.

[7] = system: Myogenin; test: Myogenin gene expression promoting effect (I) (Example 3); format: cell-based, Mouse; settings: C2C12 cells, disodium cytidylate, 6 days, vs control; FIG. 3
Procedure: as §2
(§5) Mouse myoblast cell line C2C12 cells were suspended in growth medium, seeded in 24-well plates, and incubated in a 37° C., 5% CO2 incubator until the cell density reached 70-90%. The growth medium was removed, and exchanged to a differentiation induction medium containing 1 mM disodium cytidylate or 1 mM disodium cytidylate or containing no cytidylic acid. The cells were cultured for 6 days while exchanging the medium once every 2 days. Total RNA extraction and reverse transcription reaction were performed as in Example 1. Real-time PCR analysis was used to determine mRNA expression levels of Myogenin and β-actin as an internal standard. Statistical analysis was performed in the same method as that of Example 1.

[8] = system: Myh7; test: Myh7 gene expression promoting effect (I) (Example 5); format: cell-based, Mouse; settings: C2C12 cells, 5 mM disodium cytidylate, 4 days, vs control; FIG. 6
Procedure: as §4
as §5, with “5” for “1 mM disodium cytidylate or 1”, “4” for “6”, “days, and the medium was then removed, and the total” for “days. Total”, “Myh7” for “Myogenin”, “Welch's t-test” for “Statistical analysis”, “used for statistical analysis. The threshold for statistical significance was set to 5%.” for “performed in the same method as that of Example 1.”

[9] = system: C2C12 cells; test: Mitochondrial DNA copy number increasing effect (I) (Example 7); format: cell-based, Mouse; settings: 1 mM or 5 mM disodium cytidylate, 6 days, n=3, FIG. 9
Procedure: Cell culture and addition of test substance were carried out by the same method as that of Example 1. The cells were cultured for 6 days while exchanging a differentiation induction medium containing the test substance once every 2 days, the medium was then removed and total DNA was extracted from the cells using DNeasy Blood & Tissue kit (QIAGEN). Extracted DNA, GoTaq® qPCR Master Mix (Promega) and a real-time PCR device, Thermal Cycler Dice Real Time System (Takara Bio), were used to determine COX2 (Cytochrome c oxidase subunit 2), a gene encoded in the mitochondrial DNA, and PPIA (Cyclophilin A), a gene encoded in […] DNA as an internal standard. The amount of COX2 present relative to the amount of PPIA present was evaluated as the mitochondrial DNA copy number. Statistical analysis was performed by the same method as that of Example 1. This Example was studied with n=3.

[10] = system: C2C12 cells; test: Mitochondrial DNA copy number increasing effect (II) (Example 8); format: cell-based, Mouse; settings: 6 days, n=3, FIG. 10
Procedure: Cell culture and addition of test substances were carried out in the same method as that of Example 2. The cells were cultured for 6 days, the medium was then removed and total DNA was extracted from the cells using DNeasy Blood & Tissue kit (QIAGEN).
Extracted DNA, GoTaq® qPCR Master Mix (Promega) and a real-time PCR device, Thermal Cycler Dice Real Time System (Takara Bio), were used to determine COX2 (Cytochrome c oxidase subunit 2), a gene encoded in the mitochondrial DNA, and PPIA (Cyclophilin A), a gene encoded in […] DNA, as an internal standard.
The amount of COX2 present relative to the amount of PPIA present was evaluated as the mitochondrial DNA copy number. Statistical analysis was performed by the same method as that of Example 1. This Example was studied with n=3.

[11] = system: C2C12 cells; test: Myotube cell diameter increasing effect (I) (Example 9); format: cell-based, Mouse; settings: 6 days; for Average myotube cell diameter: control 53.9
Procedure: Cell culture and addition of a test substance were carried out by the same method as that of Example 1. The cells were cultured for 6 days while exchanging a differentiation inducing medium containing the test substance once every 2 days, and five positions near the center of the wells were then photographed at magnifications of 100. Using ImageJ image analysis software, the diameters of ten myotube cells per a photograph were measured in order from the myotube cell having the largest diameter, and an average of 50 cells was determined to be the diameter of the myotube cell in each well. Statistical analysis was performed by the same method as that of Example 1. Photographs of representative examples of the respective groups are shown in FIG. 11, and the measured results of the average myotube cell diameter are shown in Table 1 and FIG. 12.

[12] = system: mitochondria; settings: Patent Literature 3; cited from earlier work

SMILES	Myogenin mRNA expression level ([2]; FIG. 5)	myotube cell diameter (photographs) [4]	myotube cell diameter (ImageJ, average of 50 cells) [4]	PGC-1α mRNA expression level [6]	Myogenin mRNA expression level ([2]; FIG. 4)	Myh7 mRNA expression level ([3]; FIG. 7)	mitochondrial DNA copy number (COX2 relative to PPIA) [10]	further results
CCc1oc(=O)c(Cc2c(O)c(C)c(CC)oc2=O)c(O)c1C [Helipyrone A]	–	–	–	–	–	–	–	PGC-1α production [1]: promotes PGC-1α production in neurons
Nc1ccn([C@@H]2O[C@H](CO)[C@@H](O)[C@H]2O)c(=O)n1 [cytidine]	excellent myotube cell differentiation promoting effect	significantly increased	concentration-dependently and remarkably increased	–	–	–	–	Myh7 mRNA expression level ([3]; FIG. 8): markedly enhanced
Nc1ccn([C@@H]2O[C@H](COP(=O)(O)O)[C@@H](O)[C@H]2O)c(=O)n1 [cytidylic acid]	remarkably enhanced	significantly increased	concentration-dependently and remarkably increased	concentration-dependently and remarkably enhanced	remarkably enhanced	remarkably enhanced	concentration-dependently and remarkably enhanced	PGC-1α mRNA expression level [5]: concentration-dependently and remarkably enhanced; Myogenin mRNA expression level [7]: concentration-dependently and remarkably enhanced; Myh7 mRNA expression level [8]: markedly enhanced; mitochondrial DNA copy number (COX2 relative to PPIA) [9]: concentration-dependently and remarkably enhanced; Average myotube cell diameter ([11]; 1 mM CMP): 61.1 μm; Average myotube cell diameter ([11]; 5 mM CMP): 62.5 μm; myotube cell diameter ([11]; vs control, FIGS. 11 and 12): concentration-dependently and remarkably increased
O=C(O)c1cc(C(=O)O)c2c(n1)C(=O)C(=O)c1cc(C(=O)O)[nH]c1-2 [pyrroloquinoline quinone]	–	–	–	–	–	–	–	mitochondria activating effects [12]: exhibits mitochondria activating effects
O=c1ccn([C@@H]2O[C@H](CO)[C@@H](O)[C@H]2O)c(=O)[nH]1 [uridine]	–	significantly increased	concentration-dependently and remarkably increased	–	–	–	–	–
O=c1ccn([C@@H]2O[C@H](COP(=O)(O)O)[C@@H](O)[C@H]2O)c(=O)[nH]1 [uridylic acid]	–	significantly increased	significantly increased	concentration-dependently and remarkably enhanced	remarkably enhanced	remarkably enhanced	concentration-dependently and remarkably enhanced	–
